One experiment has as its target T1, human FAAH-1 (Homo sapiens, UniProt O00519).
T1 construct: expressed in transfected cells; host or cells: Hek293 cells stably transfected with human FAAH-1; membrane preparation
T1 sequence (O00519 1-579): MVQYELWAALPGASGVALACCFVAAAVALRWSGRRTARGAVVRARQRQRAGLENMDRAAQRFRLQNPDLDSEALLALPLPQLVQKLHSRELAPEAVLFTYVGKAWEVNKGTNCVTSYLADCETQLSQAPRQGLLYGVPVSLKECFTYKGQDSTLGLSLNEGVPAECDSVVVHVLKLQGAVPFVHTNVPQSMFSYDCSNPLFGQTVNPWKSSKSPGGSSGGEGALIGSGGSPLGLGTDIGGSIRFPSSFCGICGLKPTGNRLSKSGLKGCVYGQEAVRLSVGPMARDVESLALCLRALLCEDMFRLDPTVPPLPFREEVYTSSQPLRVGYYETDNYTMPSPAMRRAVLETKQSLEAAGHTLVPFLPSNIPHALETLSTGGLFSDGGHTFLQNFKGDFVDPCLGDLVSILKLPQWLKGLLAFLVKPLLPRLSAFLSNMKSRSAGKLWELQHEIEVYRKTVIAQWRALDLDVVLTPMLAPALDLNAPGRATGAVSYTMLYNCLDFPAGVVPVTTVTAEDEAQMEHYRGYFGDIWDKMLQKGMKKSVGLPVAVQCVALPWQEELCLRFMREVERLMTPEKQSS
In words: Human recombinant Fatty Acid Amide Hydrolase-1 (FAAH-1) fluorescent assay, Hek293-hFAAH-1 membranes. The format is biochemical. As to conditions: 3 separate experiments, each in triplicate. The procedure: Human Recombinant Fatty Acid Amide Hydrolase-1 (FAAH-1) Fluorescent Assay
Hek293 cells stably transfected with human FAAH-1 were maintained in DMEM containing 10% FBS, 1% pen/strep and 500 μg/mL G418 to maintain selective pressure. Cells were scraped off with cold PBS1× pH7.4 from plates and collected by centrifugation (500 g, 10 minutes, 4° C.); cells pellets were re-suspended in homogenizing buffer (20 mM Tris-HCl pH7.4, 0.32M sucrose), disrupted by sonication (10 pulses, 5 times) and centrifuged at 800×g for 15 minutes at 4° C.; the resultant supernatants collected were then centrifuged at 105,000×g for 1 hr at 4° C. and membranes pellets were re-suspended in PBS1× pH7.4.
Protein concentration was measured and samples aliquot stored at −80° C. until use.
The blank (no activity) was prepared using 180 μL of assay buffer without Hek293-hFAAH-1 membrane preparation and 10 μL of DMSO.
After 50 minutes of pre-incubation of compounds with the enzyme at 37° C., the reaction was started by the addition of 10 μL of substrate (AMC Arachidonyl Amide, N.10005098, Cayman Chemical) for 30 min at 37° C. The substrate is prepared in Ethanol in order to achieve the final concentration of 2 μM.
Fluorescence was detected with Tecan Infinite M200 nanoquant (Tecan Group Ltd.) at an excitation wavelength 350 nm and an emission wavelength 460 nm.
(§1) EC50 or IC50 values (concentrations causing half-maximal response or inhibition of control agonist response) were determined by non-linear regression analysis of the Log [concentration]/response curves generated with mean replicate values using a four parameter Hill equation curve fitting with GraphPad Prism 5 (GraphPad Software Inc., CA—USA).

The target in a further experiment is T2, human-D3R (Homo sapiens, UniProt P35462).
T2 construct: expressed in transfected cells; host or cells: CHO cell line stably transfected with human D3R
T2 sequence (P35462 whole entry): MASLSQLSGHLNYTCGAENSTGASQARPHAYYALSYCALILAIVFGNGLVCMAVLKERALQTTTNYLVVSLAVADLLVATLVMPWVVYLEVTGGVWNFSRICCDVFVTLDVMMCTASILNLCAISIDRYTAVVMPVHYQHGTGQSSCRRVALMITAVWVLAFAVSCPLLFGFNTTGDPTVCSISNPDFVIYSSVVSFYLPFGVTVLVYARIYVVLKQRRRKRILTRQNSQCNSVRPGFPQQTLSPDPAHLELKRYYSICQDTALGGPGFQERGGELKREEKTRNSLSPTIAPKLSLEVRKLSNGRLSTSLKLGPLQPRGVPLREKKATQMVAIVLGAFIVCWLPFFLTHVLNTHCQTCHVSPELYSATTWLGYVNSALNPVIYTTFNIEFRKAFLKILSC
Put plainly: D3 Dopamine Receptor (D3dR) cellular assay, cAMP HTRF functional assay in human-D3R expressing CHO cells. To be noted: for Emax: CHO, 0.5 h, % of 300 nM Dopamine response, read-out: Dopamine D3 % of Agonist Activity; for pEC50: cAMP assay, CHO human-D3R, one experiment in duplicate. The format is cell-based. The procedure: D3 Dopamine Receptor (D3dR) Cellular Assay
Activity on D3R was tested with a cAMP functional assay on a stably transfected human-D3R expressing CHO cell line. On the day of the assay performance the cells were washed twice with PBS (w/o calcium and magnesium) and dislodged with a cell scraper, transferred to PBS, centrifuged and re-suspended in HBSS (w/o calcium and magnesium), supplemented with 1 g/L glucose and […] IBMX. The cell suspension was seeded on a 384 well plate (Greiner) and the assay was performed by adding compounds either test compounds alone (for agonist activity), or with test compound after a pre-incubation with 10 nM Dopamine as a stimulant (for antagonistic activity). After incubation (30 min at RT) the cell stimulation was stopped by adding the detecting reagents (cAMP-XL665 and anti-cAMP cryptate) diluted in lysis buffer. The signal was quantified by Homogenous Time-Resolved Fluorescence (HTRF) on a Perkin Elmer Envision plate reader after one hour of incubation at RT.
as §1
In general terms: Time-resolved FRET reads energy transfer from a long-lived donor to a nearby acceptor.

The structures appear in SMILES notation. pEC50, pIC50: −log10 of the molar value. Counter-ions that a name gives are not always drawn.

Drawing on US9828352B2, “Phenyl carbamates and their use as inhibitors of the fatty acid amide hydrolase (FAAH) enzyme and modulators of the D3 dopamine receptor (D3DR)” (FONDAZIONE ISTITUTO ITALIANO DI TECNOLOGIA, priority 2013, dated 2017), this text covers IC50, Emax and EC50 for 20 compounds.

As for `Cc1ccccc1N1CCN(CCCNC(=O)Oc2cccc(N3CCOCC3)c2)CC1` [Example 13, (3-morpholino phenyl) N-[3-[4-(o-tolyl)piperazin-1-yl]propyl]carbamate hydrochloride], at human FAAH-1, the pIC50 (commonly −log10 of the IC50, conventionally taken in molar units) was 8.36. Moreover, at human-D3R, the Emax amounted to 59.4% and the pEC50 (as a rule, the negative decadic logarithm of the EC50, by convention in mol/L) was 6.82.

As to `O=C(NCCC(F)CN1CCN(c2cccc(Cl)c2Cl)CC1)Oc1ccc(-c2ccccc2)cc1` (centres unmarked) [Example 36, (4-phenylphenyl) N-[4-[4-(2,3-dichlorophenyl)piperazin-1-yl]-3-fluoro-butyl] carbamate], the pIC50 at human FAAH-1 was 8.89. Moreover, on human-D3R, the Emax stood at 87.6% and the negative-log EC50 (pEC50) was 6.82.

Consider `COc1cc(OC(=O)NCCCN2CCN(c3ccccc3OC)CC2)ccc1-c1ccccc1` [Example 37, (3-methoxy-4-phenyl-phenyl) N-[3-[4-(2-methoxyphenyl)piperazin-1-yl]propyl] carbamate hydrochloride], for which the negative-log IC50 (pIC50) on human FAAH-1 was 8.11. Also, at human-D3R, the Emax is 73.5% and the pEC50 is 7.42.

As for `COc1ccccc1N1CCN(CCCNC(=O)Oc2ccc(Cc3ccccc3)cc2)CC1` [Example 43, (4-benzylphenyl) N-[3-[4-(2-methoxyphenyl)piperazin-1-yl]propyl]carbamate hydrochloride], on human FAAH-1, the pIC50 was 7.74.

Turning to `O=C(NCC(CF)N1CCN(c2cccc(Cl)c2Cl)CC1)Oc1ccc(-c2ccccc2)cc1` (centres unmarked) [Example 41, (4-phenylphenyl) N-[2-[4-(2,3-dichlorophenyl)piperazin-1-yl]-3-fluoro-propyl] carbamate hydrochloride], the pIC50 on human FAAH-1 was 8.00.

Take `NC(=O)c1cccc(-c2ccc(OC(=O)NCCCCN3CCN(c4ccccc4)CC3)cc2)c1` [Example 25, [4-(3-carbamoylphenyl)phenyl] N-[4-(4-phenylpiperazin-1-yl)butyl]carbamate]: the pIC50 on human FAAH-1 is 8.46. At human-D3R, the Emax worked out at 87.5% and the negative-log EC50 (pEC50) is 8.44.

On to `O=C(NCCCCN1CCN(c2cccc(Cl)c2Cl)CC1)Oc1ccc2c(c1)[nH]c1ccccc12` [Example 28, 9H-carbazol-2-yl N-[4-[4-(2,3-dichlorophenyl)piperazin-1-yl]butyl]carbamate], for which, at human FAAH-1, the negative logarithm of the IC50 (pIC50) is 8.10. Besides, on human-D3R, the Emax was 89.7% and the negative-log EC50 (pEC50) was 6.92.

Take `COc1ccccc1N1CCN(CCCCNC(=O)Oc2ccc(C(=O)c3ccccc3)cc2)CC1` [Example 45, (4-benzoylphenyl) N-[4-[4-(2-methoxyphenyl)piperazin-1-yl]butyl]carbamate hydrochloride]: the pIC50 on human FAAH-1 is 8.28. Besides, on human-D3R, the Emax is 51.4% and the negative-log EC50 (pEC50) was 7.54.

For `O=C(NCCCN1CCN(c2ccccc2C(F)(F)F)CC1)Oc1ccc(-c2ccccc2)cc1` [Example 16, (4-phenylphenyl) N-[3-[4-[2-(trifluoromethyl)phenyl]piperazin-1-yl]propyl] carbamate], at human FAAH-1, the pIC50 is 7.92. In addition, on human-D3R, the Emax is 95.4% and the negative logarithm of the EC50 (pEC50) is 6.52.

Regarding `NC(=O)c1cccc(-c2cccc(OC(=O)NCCCCN3CCC(c4ccccc4)CC3)c2)c1` [Example 14, [3-(3-carbamoylphenyl)phenyl] N-[4-(4-phenyl-1-piperidinyl)butyl]carbamate hydrochloride], the negative-log IC50 (pIC50) on human FAAH-1 was 8.02. Further, at human-D3R, the Emax worked out at 74.3% and the pEC50 was 7.44.

For the compound `O=C(NCCCCN1CCN(c2cccc(Cl)c2Cl)CC1)Oc1ccc(-c2ccccn2)cc1` [Example 24, [4-(2-pyridyl)phenyl] N-[4-[4-(2,3-dichlorophenyl)piperazin-1-yl]butyl]carbamate], at human FAAH-1, the pIC50 was 9.68. For the same compound, at human-D3R, the Emax was 70.4% and the negative-log EC50 (pEC50) was 8.23.

In the case of `COc1ccccc1N1CCN(CCCNC(=O)Oc2ccc(C(=O)c3ccccc3)cc2)CC1` [Example 44, (4-benzoylphenyl) N-[3-[4-(2-methoxyphenyl)piperazin-1-yl]propyl]carbamate hydrochloride], the pIC50 at human FAAH-1 was 7.96.

As to `O=C(NCCCCN1CCN(c2cccc(Cl)c2Cl)CC1)Oc1cccc(N2CCC(F)(F)CC2)c1` [Example 9, [3-(4,4-difluoro-1-piperidinyl)phenyl] N-[4-[4-(2,3-dichlorophenyl)piperazin-1-yl]butyl]carbamate hydrochloride], the negative logarithm of the IC50 (pIC50) on human FAAH-1 is 7.77. In addition, at human-D3R, the Emax worked out at 54.7% and the negative-log EC50 (pEC50) is 8.04.

Consider `O=C(NCCCN1CCN(c2ccccc2C(F)(F)F)CC1)Oc1ccc(N2CCC(F)(F)CC2)cc1` [Example 18, [4-(4,4-difluoro-1-piperidinyl)phenyl] N-[3-[4-[2-(trifluoromethyl)phenyl]piperazin-1-yl]propyl]carbamate hydrochloride], for which, on human FAAH-1, the negative logarithm of the IC50 (pIC50) is 7.55. On human-D3R, the Emax is 86% and the negative-log EC50 (pEC50) was 6.72.

On to `O=C(NCCCN1CCN(c2cccc(Cl)c2Cl)CC1)Oc1ccc2c(c1)[nH]c1ccccc12` [Example 17, 9H-carbazol-2-yl N-[3-[4-(2,3-dichlorophenyl)piperazin-1-yl]propyl]carbamate], for which, at human FAAH-1, the negative logarithm of the IC50 (pIC50) is 8.32. Also, at human-D3R, the Emax was determined as 91% and the pEC50 is 6.82.

For `Cc1ccccc1N1CCN(CCCNC(=O)Oc2ccc(-c3ccccc3)cc2)CC1` [Example 15, (4-phenylphenyl) N-[3-[4-(o-tolyl)piperazin-1-yl]propyl]carbamate], the negative logarithm of the IC50 (pIC50) at human FAAH-1 is 8.39. Also, at human-D3R, the Emax was determined as 82% and the pEC50 is 6.54.

Turning to `NC(=O)c1cccc(-c2ccc(OC(=O)NCCCCN3CCN(c4cccc(Cl)c4Cl)CC3)cc2F)c1` [Example 21, [4-(3-carbamoylphenyl)-3-fluoro-phenyl] N-[4-[4-(2,3-dichlorophenyl)piperazin-1-yl]butyl]carbamate], the pIC50 on human FAAH-1 was 9.02. The Emax at human-D3R amounted to 69.4%.

On to `COc1ccccc1N1CCN(CCCCNC(=O)Oc2ccc3c(c2)[nH]c2ccccc23)CC1` [Example 33, 9H-carbazol-2-yl N-[4-[4-(2-methoxyphenyl)piperazin-1-yl]butyl]carbamate], for which the pIC50 on human FAAH-1 is 7.43. At human-D3R, the Emax is 65.9% and the negative logarithm of the EC50 (pEC50) was 7.92.

With `O=C(NCCCCN1CCN(c2cccc(Cl)c2Cl)CC1)Oc1ccc(N2CCC(F)(F)CC2)cc1` [Example 12, [4-(4,4-difluoro-1-piperidinyl)phenyl] N-[4-[4-(2,3-dichlorophenyl)piperazin-1-yl]butyl]carbamate hydrochloride], the pIC50 on human FAAH-1 was 8.00. Also, at human-D3R, the Emax amounted to 90.7% and the pEC50 was 7.31.

Take `O=C(NCCCCN1CCN(c2cccc(Cl)c2Cl)CC1)Oc1cccc(N2CCOCC2)c1` [Example 8, (3-morpholinophenyl) N-[4-[4-(2,3-dichlorophenyl)piperazin-1-yl]butyl] carbamate hydrochloride]: the negative logarithm of the IC50 (pIC50) on human FAAH-1 was 8.47. Moreover, at human-D3R, the Emax was determined as 83% and the negative-log EC50 (pEC50) was 7.46.
